# Experiments:
# Assay type in all cases: in vivo, human
# [1] = system: renal cell carcinoma, lung and bone metastases, excruciating bone pain; test: Example 2: patient T., renal cell carcinoma with lung and bone metastases, bone pain, treated with crystal violet
# Experimental: Patient four. Three years ago, the left kidney was removed, and preventive chemotherapy was administered for renal cell carcinoma. In a CT examination, a 2.5×2.4×2.3 cm tumor-like mass in the right kidney projection, three round tumor-like masses from 2.6 to 2.3 cm in diameter in the left lung, and numerous bone metastases. Grave condition, dyspnea, cyanosis, […]. Complaints of excruciating bone pain. […] Treatment prescribed, including the use of an antitumor medicinal preparation. The preparation, crystal violet, was administered by mouth as a potion-16 drops of a 1% solution three times a day, and as microclysters. After 7 days of treatment, dyspnea abated, and the pain syndrome disappeared. Blood tests against the background of treatment have normalized over 3 weeks. Then, the course was repeated using crystal violet preparation which was administered into rectum in the form of 1% suppositories and by inhaling, for 12 months with half-month long breaks. During the therapy the right kidney tumor and lung metastases disappeared. No pain. Weight restored.
# [2] = system: poorly differentiated pulmonary adenocarcinoma, MTS to the brain and skeleton bones, pain syndrome; test: Example 1: patient V., pulmonary adenocarcinoma with MTS, pain syndrome, treated with gentian violet
# Experimental: Patient six. Diagnosis: poorly differentiated pulmonary adenocarcinoma. MTS [expansion not given; possibly metastases] to the brain and skeleton bones. Cachexia. Pain syndrome. Relatives state that over the last two months the patient has been receiving 5.0 ml of heroin intravenously three times a day. Otherwise, they note resumption of pronounced excruciating pain. In CT, several tumor-like masses in the mediastinum and left lung, average size 3.9×3.6×3.2 cm. Grave condition, dyspnea, cyanosis, adynamia, and sensations of pain, getting stronger when coughing. Treatment was prescribed that included the use of medicinal preparations with antineoplastic action—an organic dye, a 1% gentian violet solution. The first course of treatment using the preparation—15 drops of a 1% solution in a glass of water three times a day by mouth, additionally a microclyster—10 drops of a 1% solution in 30 ml of water at lunch, and q.h.s. a 1% suppository with the preparation. […] On the third week of treatment with the preparation the patient's condition improved. […] The lung tumor size dropped to 2.1×2.2×2.2 cm. After six months of treatment the tumor size dropped to 0.3×0.4×1.0 cm. […] Blood tests against the background of treatment have normalized.
# [3] = system: pancreas head blastoma, pain; test: Example 5: patient Z., pancreas head blastoma with neck lymph node metastases, pain, treated with gentian violet
# Description: Patient two. […] Started chemotherapy. After three weeks the condition began rapidly deteriorating, accompanied by extreme weight loss—from 95 kg to 72 kg. Pain became considerably more severe. Stomach pain occurs before having a meal, i.e. after having a meal the pain is lower. At the same time stool was lightly yellow—very light color. The patient had been taking an analgesic—ketanol—infrequently, but lately has been taking it two times a day. […] Immediately after the end of the first course of phthorafurum the patient began taking gentian violet preparation, 3 mg per 50 kg of weight two times a day.
# osteoarthrosis pain = test: Example 7: patient T., osteoarthrosis with joint deformation, permanent pain
# Experimental: Patient four. Complaints of not being able to raise their right arm above the shoulder level. In CT, effects of osteoarthrosis with joint deformation were noticed. Taking analgesic preparations turned out to be ineffective. Pain became permanent. Gentian violet preparation was prescribed, 0.0004 mg/kg of weight once a day.
# [4] = system: bladder cancer, metastases in pelvic bones, pain; test: Example 3: patient L., bladder cancer with pelvic bone metastases, treated with malachite green oxalate
# Experimental: Patient one. Diagnosis: bladder cancer. Metastases in pelvic bones. Three years ago bladderectomy was performed for cancer. Complaints of pain, bloody urine, frequent urination and pelvic bone pains. In CT, a 2×2×2 cm tumor-like mass in the projection of the mouth of the right ureter and a 1.5×1.1×0.9 cm in the projection of the mouth of the left ureter. In the wing of the left illium two tumor-like masses with irregular contours, 1.5 to 2.5 cm in diameter. Medium severity condition, skin integument pallor, blood in urine. […] Began treatment with the preparation—20 drops of a 1% solution of malachite green oxalate in half a glass of water by mouth and in the form of microclysters. […] The course had lasted for 4 months. […] Biphosphonates were prescribed for replacement therapy.
# [5] = system: metastasizing melanoma of the right forearm, metastases to the liver, pain; test: Example 4: patient D., metastasizing melanoma, treated with malachite green oxalate
# Experimental: Patient three. Diagnosis: metastasizing melanoma of the right forearm. Metastases to the liver and right eye. Three years ago melanoma resection was performed. A year and a half later gripes appeared in the right eye. Eye enucleation for metastasis was performed. In the examination of the internal organs, a 4×5×4 cm metastasis in the liver was detected. At the same time, relapse in the surgery area appeared. Complaints of severe pain in the liver and pain in the relapse area. Objectively: medium severity condition, skin integument pallor, a purple tumor-like mass on the right forearm with a 4×5×5 cm pronounced edema. […] Began treatment with the preparation according to the following regimen: 5 ml of a 0.000001% sterile solution of malachite green oxalate was injected under the tumor base. Later, a 2% ointment with the same preparation was applied to the skin surface. Two times a day, 500 mg of malachite green oxalate diluted in 500 ml of saline was administered intravenously. Also, 5 g of malachite green oxalate was diluted in water and administered by mouth, as well as in the form of microclysters. […] The course had continued for 3 months.
# migraine = test: Example 8: patient O., migraine; conditions: third day; 2 g in 100 ml of water on an empty stomach two times a day
# Experimental: Patient five.
# Complaints of periodic excruciating pain in the right temporal area. Diagnosis: migraine. Prescribed treatment: malachite green oxalate preparation, 2 g dissolved in 100 ml of water on an empty stomach two times a day.
compound,measurement,setting,value
CN(C)c1ccc(C(=C2C=CC(=[N+](C)C)C=C2)c2ccc(N(C)C)cc2)cc1 [crystal violet],pain syndrome,[1]; after 7 days of treatment,disappeared
same,dyspnea,"[1]; after 7 days, 16 drops of 1% solution by mouth three times a day and microclysters",abated
same,pain,[1]; after the 12-month course,No pain
same,weight,[1]; after the 12-month course,restored
same,right kidney tumor and lung metastases,"[1]; during therapy, 1% suppositories and inhaling for 12 months with breaks",disappeared
same,blood tests,[1]; over 3 weeks,normalized
CN(C)c1ccc(C(=C2C=CC(=[N+](C)C)C=C2)c2ccc(N(C)C)cc2)cc1 [gentian violet],brain metastases,[2]; after six months of treatment,No brain metastases are observed
same,dyspnea,[2]; after six months of treatment,abated
same,pain syndrome,[2]; after six months of treatment,practically absent
same,blood tests,[2]; against the background of treatment,normalized
same,pain syndrome after the sessions,"[2]; first week, for several hours after sessions, 1% solution by mouth, microclyster, suppository",substantial improvement of the pain syndrome
same,patient's condition,[2]; third week of treatment,improved
same,MTS in the brain in CT,[2]; three months after start of treatment,no MTS in the brain were observed
same,pain,"[3]; after 3 days, 3 mg per 50 kg of weight two times a day",abated significantly
same,return of pain,[3]; hereinafter,has not returned
same,pain,[3]; later than 3 days (then),stopped completely
same,pain,osteoarthrosis pain; after a week,disappeared completely
same,pain,"osteoarthrosis pain; after three days, 0.0004 mg/kg of weight once a day",abated
malachite green oxalate,bladder tumor and pelvic metastases,[4]; complete course of 6 months,disappeared
same,return of pain,[4]; complete course of 6 months,did not return
same,weight,[4]; complete course of 6 months,restored
same,blood tests,[4]; fourth week,normalized
same,decrease of pelvic bone metastases,[4]; over the 4-month course,1.5 cm
same,use of narcotic analgesics by the patient,[4]; previously 5.0 ml of morphine three times a day,declined taking narcotic analgesics
same,pain in the area of metastases,"[4]; sixth day, 20 drops of 1% solution by mouth and microclysters",got duller
same,pain in the area of metastases,[4]; tenth day,disappeared completely
same,blood tests,[5]; 4th week,normalized
same,return of pain,[5]; complete course of 6 months,did not return
same,weight,[5]; complete course of 6 months,restored
same,decrease of liver metastasis,"[5]; during the 3-month course, baseline 4×5×4 cm",1.5 cm
same,use of narcotics by the patient,[5]; fifth day after the start of treatment,declined taking narcotics
same,pain in the area of metastases,"[5]; sixth day, injection under tumor, 2% ointment, intravenous, by mouth, microclysters",became duller
same,use of narcotic analgesics by the patient,"[5]; stated after the tenth day, previously 3.0 ml of morphine four times a day",declined taking narcotic analgesics
same,pain in the area of metastases,[5]; tenth day,disappeared completely
same,pain,migraine,abated and has not recurred
